# Test results as given in PubChem BioAssay (NCI).
#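 A five-concentration, 48-hour dose response in 96-well plates underlies each endpoint, interpolated linearly between surrounding concentrations. GI50 marks 50% less growth. The concentration for full growth arrest is given as TGI.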
# Tests used:
# Assay in all cases: growth of human tumour cells (NCI), 48 h
# 786-0 renal = test system: 786-0 renal
# A498 renal = test system: A498 renal
# ACHN renal = test system: ACHN renal
# BT-549 breast = test system: BT-549 breast
# CAKI-1 renal = test system: CAKI-1 renal
# CCRF-CEM leukemia = test system: CCRF-CEM leukemia
# COLO 205 colon = test system: COLO 205 colon
# DU-145 prostate = test system: DU-145 prostate
# EKVX NSCLC = test system: EKVX NSCLC
# HCC-2998 colon = test system: HCC-2998 colon
# HCT-116 colon = test system: HCT-116 colon
# HCT-15 colon = test system: HCT-15 colon
# HL-60(TB) leukemia = test system: HL-60(TB) leukemia
# HOP-62 NSCLC = test system: HOP-62 NSCLC
# HOP-92 NSCLC = test system: HOP-92 NSCLC
# HS 578T breast = test system: HS 578T breast
# HT29 colon = test system: HT29 colon
# IGROV1 ovarian = test system: IGROV1 ovarian
# K-562 leukemia = test system: K-562 leukemia
# KM12 colon = test system: KM12 colon
# LOX IMVI melanoma = test system: LOX IMVI melanoma
# M14 melanoma = test system: M14 melanoma
# MCF7 breast = test system: MCF7 breast
# MDA-MB-231 breast = test system: MDA-MB-231 breast
# MDA-MB-435 = test system: MDA-MB-435
# MOLT-4 leukemia = test system: MOLT-4 leukemia
# NCI-H226 lung = test system: NCI-H226 lung
# NCI-H23 lung = test system: NCI-H23 lung
# NCI-H460 lung = test system: NCI-H460 lung
# NCI/ADR-RES ovarian = test system: NCI/ADR-RES ovarian
# OVCAR-4 ovarian = test system: OVCAR-4 ovarian
# OVCAR-8 ovarian = test system: OVCAR-8 ovarian
# PC-3 prostate = test system: PC-3 prostate
# RPMI-8226 leukemia = test system: RPMI-8226 leukemia
# RXF 393 renal = test system: RXF 393 renal
# SF-268 CNS = test system: SF-268 CNS
# SF-295 CNS = test system: SF-295 CNS
# SF-539 CNS = test system: SF-539 CNS
# SK-MEL-2 melanoma = test system: SK-MEL-2 melanoma
# SK-MEL-28 melanoma = test system: SK-MEL-28 melanoma
# SK-MEL-5 melanoma = test system: SK-MEL-5 melanoma
# SK-OV-3 ovarian = test system: SK-OV-3 ovarian
# SNB-19 CNS = test system: SNB-19 CNS
# SNB-75 CNS = test system: SNB-75 CNS
# SR leukemia = test system: SR leukemia
# SW-620 colon = test system: SW-620 colon
# T-47D breast = test system: T-47D breast
# TK-10 renal = test system: TK-10 renal
# U251 CNS = test system: U251 CNS
# UACC-257 melanoma = test system: UACC-257 melanoma
# UACC-62 melanoma = test system: UACC-62 melanoma
# UO-31 renal = test system: UO-31 renal
# A549 NSCLC = test system: A549 NSCLC
# NCI-H522 lung = test system: NCI-H522 lung
# OVCAR-3 ovarian = test system: OVCAR-3 ovarian
# OVCAR-5 ovarian = test system: OVCAR-5 ovarian
# SN12C renal = test system: SN12C renal
structure (smiles),measurement,setting,value
Cc1cccc(NC(=S)Nc2ccc(Cl)cc2)n1,TGI,786-0 renal,> 100 µM
same,TGI,A498 renal,> 100 µM
same,TGI,ACHN renal,> 100 µM
same,TGI,BT-549 breast,> 100 µM
same,TGI,CAKI-1 renal,> 100 µM
same,TGI,CCRF-CEM leukemia,> 100 µM
same,TGI,COLO 205 colon,> 100 µM
same,TGI,DU-145 prostate,> 100 µM
same,TGI,EKVX NSCLC,> 100 µM
same,TGI,HCC-2998 colon,> 100 µM
same,TGI,HCT-116 colon,> 100 µM
same,TGI,HCT-15 colon,> 100 µM
same,TGI,HL-60(TB) leukemia,> 100 µM
same,TGI,HOP-62 NSCLC,> 100 µM
same,TGI,HOP-92 NSCLC,> 100 µM
same,TGI,HS 578T breast,> 100 µM
same,TGI,HT29 colon,> 100 µM
same,TGI,IGROV1 ovarian,> 100 µM
same,TGI,K-562 leukemia,> 100 µM
same,TGI,KM12 colon,> 100 µM
same,TGI,LOX IMVI melanoma,> 100 µM
same,TGI,M14 melanoma,> 100 µM
same,TGI,MCF7 breast,> 100 µM
same,TGI,MDA-MB-231 breast,> 100 µM
same,TGI,MDA-MB-435,> 100 µM
same,TGI,MOLT-4 leukemia,> 100 µM
same,TGI,NCI-H226 lung,> 100 µM
same,TGI,NCI-H23 lung,> 100 µM
same,TGI,NCI-H460 lung,> 100 µM
same,TGI,NCI/ADR-RES ovarian,> 100 µM
same,TGI,OVCAR-4 ovarian,> 100 µM
same,TGI,OVCAR-8 ovarian,> 100 µM
same,TGI,PC-3 prostate,> 100 µM
same,TGI,RPMI-8226 leukemia,> 100 µM
same,TGI,RXF 393 renal,> 100 µM
same,TGI,SF-268 CNS,> 100 µM
same,TGI,SF-295 CNS,> 100 µM
same,TGI,SF-539 CNS,> 100 µM
same,TGI,SK-MEL-2 melanoma,> 100 µM
same,TGI,SK-MEL-28 melanoma,> 100 µM
same,TGI,SK-MEL-5 melanoma,> 100 µM
same,TGI,SK-OV-3 ovarian,> 100 µM
same,TGI,SNB-19 CNS,> 100 µM
same,TGI,SNB-75 CNS,> 100 µM
same,TGI,SR leukemia,> 100 µM
same,TGI,SW-620 colon,> 100 µM
same,TGI,T-47D breast,> 100 µM
same,TGI,TK-10 renal,> 100 µM
same,TGI,U251 CNS,> 100 µM
same,TGI,UACC-257 melanoma,> 100 µM
same,TGI,UACC-62 melanoma,> 100 µM
same,TGI,UO-31 renal,> 100 µM
COc1ccc(/C=N/Nc2nc(N)nc(N3CCCC3)c2C#N)cc1,GI50,786-0 renal,16.2 µM
same,TGI,786-0 renal,31.2 µM
same,GI50,A498 renal,12.9 µM
same,TGI,A498 renal,28.1 µM
same,GI50,A549 NSCLC,13.4 µM
same,TGI,A549 NSCLC,50.8 µM
same,GI50,ACHN renal,17.4 µM
same,TGI,ACHN renal,34.5 µM
same,GI50,BT-549 breast,19.1 µM
same,TGI,BT-549 breast,46.3 µM
same,GI50,CAKI-1 renal,20.9 µM
same,TGI,CAKI-1 renal,40.3 µM
same,GI50,CCRF-CEM leukemia,17.2 µM
same,TGI,CCRF-CEM leukemia,49.2 µM
same,GI50,COLO 205 colon,37.1 µM
same,TGI,COLO 205 colon,> 100 µM
same,GI50,DU-145 prostate,11.8 µM
same,TGI,DU-145 prostate,32 µM
same,GI50,EKVX NSCLC,25.9 µM
same,TGI,EKVX NSCLC,60.3 µM
same,GI50,HCC-2998 colon,8.59 µM
same,TGI,HCC-2998 colon,26.1 µM
same,GI50,HCT-116 colon,5.89 µM
same,TGI,HCT-116 colon,22.5 µM
same,GI50,HCT-15 colon,17.2 µM
same,TGI,HCT-15 colon,47.2 µM
same,GI50,HL-60(TB) leukemia,28.2 µM
same,TGI,HL-60(TB) leukemia,86.6 µM
same,GI50,HOP-62 NSCLC,20.2 µM
same,TGI,HOP-62 NSCLC,40.9 µM
same,GI50,HOP-92 NSCLC,17.8 µM
same,TGI,HOP-92 NSCLC,36.4 µM
same,GI50,HS 578T breast,13 µM
same,TGI,HS 578T breast,34 µM
same,GI50,HT29 colon,34.7 µM
same,TGI,HT29 colon,> 100 µM
same,GI50,IGROV1 ovarian,21 µM
same,TGI,IGROV1 ovarian,44.4 µM
same,GI50,K-562 leukemia,13 µM
same,TGI,K-562 leukemia,28.7 µM
same,GI50,KM12 colon,24.8 µM
same,TGI,KM12 colon,70.8 µM
same,GI50,LOX IMVI melanoma,7.39 µM
same,TGI,LOX IMVI melanoma,> 100 µM
same,GI50,M14 melanoma,17 µM
same,TGI,M14 melanoma,36.5 µM
same,GI50,MCF7 breast,15.3 µM
same,TGI,MCF7 breast,47.8 µM
same,GI50,MDA-MB-231 breast,12.2 µM
same,TGI,MDA-MB-231 breast,32.9 µM
same,GI50,MDA-MB-435,24.1 µM
same,TGI,MDA-MB-435,64.6 µM
same,GI50,MOLT-4 leukemia,17.8 µM
same,TGI,MOLT-4 leukemia,58.9 µM
same,GI50,NCI-H226 lung,12.4 µM
same,TGI,NCI-H226 lung,30.6 µM
same,GI50,NCI-H23 lung,20.5 µM
same,TGI,NCI-H23 lung,48.1 µM
same,GI50,NCI-H460 lung,16.4 µM
same,TGI,NCI-H460 lung,46.7 µM
same,GI50,NCI-H522 lung,21.9 µM
same,TGI,NCI-H522 lung,47.7 µM
same,GI50,NCI/ADR-RES ovarian,14.1 µM
same,TGI,NCI/ADR-RES ovarian,40.2 µM
same,GI50,OVCAR-3 ovarian,21.5 µM
same,TGI,OVCAR-3 ovarian,40.2 µM
same,GI50,OVCAR-4 ovarian,23.3 µM
same,TGI,OVCAR-4 ovarian,47.4 µM
same,GI50,OVCAR-5 ovarian,24.3 µM
same,TGI,OVCAR-5 ovarian,47 µM
same,GI50,OVCAR-8 ovarian,7.82 µM
same,TGI,OVCAR-8 ovarian,47.2 µM
same,GI50,PC-3 prostate,14.7 µM
same,TGI,PC-3 prostate,32.2 µM
same,GI50,RPMI-8226 leukemia,14.1 µM
same,TGI,RPMI-8226 leukemia,39 µM
same,GI50,RXF 393 renal,10.2 µM
same,TGI,RXF 393 renal,31.1 µM
same,GI50,SF-268 CNS,17.7 µM
same,TGI,SF-268 CNS,42 µM
same,GI50,SF-295 CNS,16.8 µM
same,TGI,SF-295 CNS,36 µM
same,GI50,SF-539 CNS,6.5 µM
same,TGI,SF-539 CNS,21.8 µM
same,GI50,SK-MEL-2 melanoma,21.4 µM
same,TGI,SK-MEL-2 melanoma,46.1 µM
same,GI50,SK-MEL-28 melanoma,30.3 µM
same,TGI,SK-MEL-28 melanoma,78.2 µM
same,GI50,SK-MEL-5 melanoma,19.3 µM
same,TGI,SK-MEL-5 melanoma,39 µM
same,GI50,SK-OV-3 ovarian,27.1 µM
same,TGI,SK-OV-3 ovarian,73.3 µM
same,GI50,SN12C renal,18.6 µM
same,TGI,SN12C renal,35.8 µM
same,GI50,SNB-19 CNS,25.7 µM
same,TGI,SNB-19 CNS,72.5 µM
same,GI50,SNB-75 CNS,23.6 µM
same,TGI,SNB-75 CNS,51.8 µM
same,GI50,SR leukemia,7.72 µM
same,TGI,SR leukemia,27.5 µM
same,GI50,SW-620 colon,30.4 µM
same,TGI,SW-620 colon,> 100 µM
same,GI50,T-47D breast,31.2 µM
same,TGI,T-47D breast,89.4 µM
same,GI50,TK-10 renal,19.4 µM
same,TGI,TK-10 renal,39.9 µM
same,GI50,U251 CNS,17.6 µM
same,TGI,U251 CNS,45.2 µM
same,GI50,UACC-257 melanoma,21.6 µM
same,TGI,UACC-257 melanoma,44.7 µM
same,GI50,UACC-62 melanoma,18.9 µM
same,TGI,UACC-62 melanoma,38.4 µM
same,GI50,UO-31 renal,20.6 µM
same,TGI,UO-31 renal,38.1 µM
